Common to all, as to experiment: biochemical
Type in all cases: binding

In experiment [1] the target is T1, panel of 442 kinases (Homo sapiens, UniProt P21802).
T1 construct: purchased Ambit Biosciences (scanMAXX KINOMEscan)
The following applies: FGFR2; for remaining activity at 1 µM: read-out: % of control at 1 µM.

Experiment [2] deals with T2, panel of 442 kinases (Homo sapiens, UniProt Q13557).
T2 construct: purchased Ambit Biosciences (scanMAXX KINOMEscan)
The following applies: CAMK2D; for remaining activity at 1 µM: read-out: % of control at 1 µM.

The target in experiment [3] is T3, panel of 442 kinases (Homo sapiens, UniProt Q92918).
T3 construct: purchased Ambit Biosciences (scanMAXX KINOMEscan)
The following applies: kinase HPK1; for remaining activity at 1 µM: read-out: % of control at 1 µM.

For experiment [4], the target named is T4, panel of 442 kinases (Homo sapiens, UniProt Q9Y4K4).
T4 construct: purchased Ambit Biosciences (scanMAXX KINOMEscan)
The following applies: kinase MAP4K5; for remaining activity at 1 µM: read-out: % of control at 1 µM.

The target in experiment [5] is T5, panel of 442 kinases (Homo sapiens, UniProt Q2M2I8).
T5 construct: purchased Ambit Biosciences (scanMAXX KINOMEscan)
The following applies: AAK1; for remaining activity at 1 µM: read-out: % of control at 1 µM.

In experiment [6] the target is T6, panel of 442 kinases (Homo sapiens, UniProt Q9Y2U5).
T6 construct: purchased Ambit Biosciences (scanMAXX KINOMEscan)
T6 sequence (Q9Y2U5 1-619): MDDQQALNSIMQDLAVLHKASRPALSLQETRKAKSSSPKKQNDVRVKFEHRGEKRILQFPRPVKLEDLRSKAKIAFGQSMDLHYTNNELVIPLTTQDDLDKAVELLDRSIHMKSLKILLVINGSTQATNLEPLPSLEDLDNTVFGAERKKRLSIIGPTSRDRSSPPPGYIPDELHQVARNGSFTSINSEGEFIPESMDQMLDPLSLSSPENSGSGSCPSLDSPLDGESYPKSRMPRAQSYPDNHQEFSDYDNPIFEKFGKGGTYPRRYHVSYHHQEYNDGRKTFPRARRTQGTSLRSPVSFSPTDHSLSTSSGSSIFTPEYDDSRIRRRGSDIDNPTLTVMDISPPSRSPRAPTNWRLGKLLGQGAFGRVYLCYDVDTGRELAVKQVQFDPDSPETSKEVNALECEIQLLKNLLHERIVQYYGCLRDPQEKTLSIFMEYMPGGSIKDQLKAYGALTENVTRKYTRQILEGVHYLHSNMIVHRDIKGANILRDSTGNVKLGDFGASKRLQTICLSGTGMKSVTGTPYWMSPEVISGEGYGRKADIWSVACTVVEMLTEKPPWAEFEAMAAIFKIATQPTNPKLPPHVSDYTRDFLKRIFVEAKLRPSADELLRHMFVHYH
The following applies: kinase MAP3K2; for remaining activity at 1 µM: read-out: % of control at 1 µM.

Experiment [7] addresses T7, panel of 442 kinases (Homo sapiens, UniProt Q9NWZ3).
T7 construct: purchased Ambit Biosciences (scanMAXX KINOMEscan)
T7 sequence (Q9NWZ3 1-460): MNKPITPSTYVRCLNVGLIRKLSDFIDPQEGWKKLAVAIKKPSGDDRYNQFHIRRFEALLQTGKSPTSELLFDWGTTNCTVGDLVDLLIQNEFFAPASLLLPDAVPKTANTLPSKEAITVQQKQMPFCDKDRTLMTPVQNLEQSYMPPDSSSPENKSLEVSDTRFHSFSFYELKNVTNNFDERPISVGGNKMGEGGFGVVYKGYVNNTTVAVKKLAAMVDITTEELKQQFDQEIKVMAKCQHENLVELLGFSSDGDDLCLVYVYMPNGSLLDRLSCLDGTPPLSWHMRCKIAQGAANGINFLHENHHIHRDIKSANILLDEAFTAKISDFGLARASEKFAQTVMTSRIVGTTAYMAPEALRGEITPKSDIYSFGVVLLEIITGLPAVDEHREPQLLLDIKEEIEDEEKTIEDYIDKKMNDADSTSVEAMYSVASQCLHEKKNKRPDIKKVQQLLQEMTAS
The following applies: kinase IRAK4; for remaining activity at 1 µM: read-out: % of control at 1 µM.

Experiment [8] deals with T8, panel of 442 kinases (Homo sapiens, UniProt Q9UF33).
T8 construct: purchased Ambit Biosciences (scanMAXX KINOMEscan)
T8 sequence (Q9UF33 23-1036): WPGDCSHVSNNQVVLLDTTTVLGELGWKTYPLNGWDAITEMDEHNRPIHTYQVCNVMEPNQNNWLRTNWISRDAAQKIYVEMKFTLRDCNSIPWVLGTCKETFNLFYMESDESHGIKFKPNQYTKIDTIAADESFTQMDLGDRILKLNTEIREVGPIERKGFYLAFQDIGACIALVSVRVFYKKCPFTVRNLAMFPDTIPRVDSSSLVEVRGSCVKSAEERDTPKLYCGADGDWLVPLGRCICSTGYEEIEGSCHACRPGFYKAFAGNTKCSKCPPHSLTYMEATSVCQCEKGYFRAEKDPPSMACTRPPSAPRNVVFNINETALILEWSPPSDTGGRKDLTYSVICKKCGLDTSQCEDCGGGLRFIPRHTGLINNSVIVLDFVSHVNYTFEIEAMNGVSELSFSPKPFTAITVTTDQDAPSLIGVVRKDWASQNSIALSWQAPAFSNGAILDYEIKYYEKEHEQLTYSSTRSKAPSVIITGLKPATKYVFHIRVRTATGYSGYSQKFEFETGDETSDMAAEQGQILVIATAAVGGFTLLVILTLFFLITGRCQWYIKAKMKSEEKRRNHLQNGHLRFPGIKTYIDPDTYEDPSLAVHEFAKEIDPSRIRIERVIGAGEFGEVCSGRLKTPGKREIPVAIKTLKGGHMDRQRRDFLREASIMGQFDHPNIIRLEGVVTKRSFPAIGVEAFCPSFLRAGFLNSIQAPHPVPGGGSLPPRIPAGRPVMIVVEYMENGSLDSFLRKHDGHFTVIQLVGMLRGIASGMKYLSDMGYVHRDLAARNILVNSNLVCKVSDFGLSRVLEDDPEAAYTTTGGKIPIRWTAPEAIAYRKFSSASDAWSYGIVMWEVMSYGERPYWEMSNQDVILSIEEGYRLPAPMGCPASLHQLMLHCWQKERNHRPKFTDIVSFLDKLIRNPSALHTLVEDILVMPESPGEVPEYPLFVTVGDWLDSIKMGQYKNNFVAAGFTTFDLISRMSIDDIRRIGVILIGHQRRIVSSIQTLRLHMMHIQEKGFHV
The following applies: EPHA6; for remaining activity at 1 µM: read-out: % of control at 1 µM.

The mark [9] stands for this setting: 10 µM, read-out: % of control at 10 µM.

T4 sequence (Q9Y4K4 whole entry): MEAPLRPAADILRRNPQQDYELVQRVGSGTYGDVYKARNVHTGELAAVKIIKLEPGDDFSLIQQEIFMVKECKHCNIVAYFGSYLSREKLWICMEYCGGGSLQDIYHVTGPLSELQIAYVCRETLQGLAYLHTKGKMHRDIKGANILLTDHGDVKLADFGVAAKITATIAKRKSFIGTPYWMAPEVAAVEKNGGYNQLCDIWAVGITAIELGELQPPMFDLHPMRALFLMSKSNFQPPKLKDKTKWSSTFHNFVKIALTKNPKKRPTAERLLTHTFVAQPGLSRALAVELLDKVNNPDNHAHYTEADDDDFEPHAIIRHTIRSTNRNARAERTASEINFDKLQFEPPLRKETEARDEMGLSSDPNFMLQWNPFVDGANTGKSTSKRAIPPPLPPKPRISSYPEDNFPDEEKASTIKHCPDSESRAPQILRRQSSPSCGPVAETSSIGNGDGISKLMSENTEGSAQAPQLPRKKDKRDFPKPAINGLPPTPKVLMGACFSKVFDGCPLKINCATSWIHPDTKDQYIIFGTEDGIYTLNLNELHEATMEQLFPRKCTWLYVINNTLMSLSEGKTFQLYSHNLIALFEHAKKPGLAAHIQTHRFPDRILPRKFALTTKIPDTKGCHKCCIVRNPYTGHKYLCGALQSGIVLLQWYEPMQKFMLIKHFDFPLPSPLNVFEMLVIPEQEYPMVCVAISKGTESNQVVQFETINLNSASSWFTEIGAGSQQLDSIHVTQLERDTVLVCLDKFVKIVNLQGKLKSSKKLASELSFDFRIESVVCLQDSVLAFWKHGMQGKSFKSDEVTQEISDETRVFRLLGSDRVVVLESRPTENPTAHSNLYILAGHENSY
T3 sequence (Q92918 whole entry): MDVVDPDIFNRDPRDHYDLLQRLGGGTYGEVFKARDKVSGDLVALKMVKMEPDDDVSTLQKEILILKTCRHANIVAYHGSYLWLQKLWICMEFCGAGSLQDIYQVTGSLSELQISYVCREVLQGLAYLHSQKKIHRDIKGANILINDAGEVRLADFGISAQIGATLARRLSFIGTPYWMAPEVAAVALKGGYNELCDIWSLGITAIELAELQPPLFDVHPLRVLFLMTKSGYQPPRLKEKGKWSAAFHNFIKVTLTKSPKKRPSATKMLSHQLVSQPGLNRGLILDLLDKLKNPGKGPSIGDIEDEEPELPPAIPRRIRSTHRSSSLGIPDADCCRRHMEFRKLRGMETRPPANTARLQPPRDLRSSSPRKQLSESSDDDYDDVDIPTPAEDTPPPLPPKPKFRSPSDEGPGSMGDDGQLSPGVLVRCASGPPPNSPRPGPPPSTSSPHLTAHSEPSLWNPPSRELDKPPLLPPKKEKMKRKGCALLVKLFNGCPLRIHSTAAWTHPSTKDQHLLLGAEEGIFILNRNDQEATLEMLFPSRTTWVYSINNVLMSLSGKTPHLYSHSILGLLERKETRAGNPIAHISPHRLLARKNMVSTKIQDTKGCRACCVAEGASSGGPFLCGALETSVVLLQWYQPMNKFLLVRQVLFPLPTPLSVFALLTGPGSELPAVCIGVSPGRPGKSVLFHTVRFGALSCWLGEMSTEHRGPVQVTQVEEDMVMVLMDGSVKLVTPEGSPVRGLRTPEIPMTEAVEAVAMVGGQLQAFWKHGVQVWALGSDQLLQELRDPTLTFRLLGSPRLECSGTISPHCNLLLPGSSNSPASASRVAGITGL
T5 sequence (Q2M2I8 whole entry): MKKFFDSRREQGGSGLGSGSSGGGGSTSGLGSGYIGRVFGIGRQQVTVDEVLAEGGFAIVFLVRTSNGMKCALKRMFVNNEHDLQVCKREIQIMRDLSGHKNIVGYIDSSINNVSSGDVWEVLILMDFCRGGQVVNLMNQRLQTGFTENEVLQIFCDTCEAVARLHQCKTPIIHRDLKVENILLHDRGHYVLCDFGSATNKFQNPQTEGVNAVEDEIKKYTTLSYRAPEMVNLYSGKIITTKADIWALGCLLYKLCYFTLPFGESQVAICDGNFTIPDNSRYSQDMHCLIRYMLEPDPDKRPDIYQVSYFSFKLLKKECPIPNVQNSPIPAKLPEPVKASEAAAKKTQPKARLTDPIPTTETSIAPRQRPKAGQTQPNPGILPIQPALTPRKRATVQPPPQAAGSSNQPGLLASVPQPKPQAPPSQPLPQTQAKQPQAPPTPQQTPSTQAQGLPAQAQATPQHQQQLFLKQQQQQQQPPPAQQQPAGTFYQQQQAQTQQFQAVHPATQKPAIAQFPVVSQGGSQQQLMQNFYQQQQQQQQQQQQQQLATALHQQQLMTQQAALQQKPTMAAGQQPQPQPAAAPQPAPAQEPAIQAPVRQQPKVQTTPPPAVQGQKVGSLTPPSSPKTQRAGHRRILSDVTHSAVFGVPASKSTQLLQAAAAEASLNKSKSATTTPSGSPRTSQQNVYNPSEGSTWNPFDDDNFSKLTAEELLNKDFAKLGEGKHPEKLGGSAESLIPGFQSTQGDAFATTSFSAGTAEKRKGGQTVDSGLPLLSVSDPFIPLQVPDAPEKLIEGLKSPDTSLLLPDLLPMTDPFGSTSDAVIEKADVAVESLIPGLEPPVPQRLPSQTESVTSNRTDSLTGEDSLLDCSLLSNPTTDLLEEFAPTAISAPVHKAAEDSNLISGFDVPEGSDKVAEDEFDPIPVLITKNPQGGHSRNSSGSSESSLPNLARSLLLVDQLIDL
T2 sequence (Q13557 whole entry): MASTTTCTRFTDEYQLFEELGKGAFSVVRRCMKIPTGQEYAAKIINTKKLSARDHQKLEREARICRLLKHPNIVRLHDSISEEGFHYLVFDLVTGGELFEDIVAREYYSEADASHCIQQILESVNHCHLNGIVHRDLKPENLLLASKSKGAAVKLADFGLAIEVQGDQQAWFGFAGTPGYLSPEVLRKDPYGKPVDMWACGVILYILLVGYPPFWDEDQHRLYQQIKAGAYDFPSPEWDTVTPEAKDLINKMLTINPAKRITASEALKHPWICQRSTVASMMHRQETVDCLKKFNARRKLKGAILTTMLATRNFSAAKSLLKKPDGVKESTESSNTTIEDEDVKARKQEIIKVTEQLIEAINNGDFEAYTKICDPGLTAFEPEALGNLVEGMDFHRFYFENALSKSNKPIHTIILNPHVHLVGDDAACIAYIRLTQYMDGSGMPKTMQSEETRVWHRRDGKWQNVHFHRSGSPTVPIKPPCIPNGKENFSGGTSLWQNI
T1 sequence (P21802 22-821): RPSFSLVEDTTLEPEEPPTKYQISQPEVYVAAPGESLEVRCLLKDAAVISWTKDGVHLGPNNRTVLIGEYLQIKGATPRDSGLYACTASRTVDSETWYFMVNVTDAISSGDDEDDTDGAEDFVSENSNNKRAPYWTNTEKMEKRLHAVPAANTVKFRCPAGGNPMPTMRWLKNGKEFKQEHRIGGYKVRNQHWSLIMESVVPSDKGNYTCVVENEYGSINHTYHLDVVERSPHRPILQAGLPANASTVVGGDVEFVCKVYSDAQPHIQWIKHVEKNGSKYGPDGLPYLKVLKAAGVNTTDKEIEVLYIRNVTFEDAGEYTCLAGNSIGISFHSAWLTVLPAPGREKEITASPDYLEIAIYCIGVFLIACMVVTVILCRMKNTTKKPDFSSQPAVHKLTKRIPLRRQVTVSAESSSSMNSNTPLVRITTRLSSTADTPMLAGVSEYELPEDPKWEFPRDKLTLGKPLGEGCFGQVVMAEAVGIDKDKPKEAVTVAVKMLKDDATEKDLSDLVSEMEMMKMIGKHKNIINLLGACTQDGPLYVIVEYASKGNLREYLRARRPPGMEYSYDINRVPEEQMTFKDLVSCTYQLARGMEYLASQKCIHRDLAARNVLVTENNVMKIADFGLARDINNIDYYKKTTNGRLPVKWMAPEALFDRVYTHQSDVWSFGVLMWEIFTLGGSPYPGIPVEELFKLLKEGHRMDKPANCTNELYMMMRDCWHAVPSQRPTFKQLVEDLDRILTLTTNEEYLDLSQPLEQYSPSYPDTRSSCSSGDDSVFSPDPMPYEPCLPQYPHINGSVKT

On to `Nc1cc(C(F)(F)F)c(-c2cc(N3CCOCC3)nc(N3CCOCC3)n2)cn1` [Buparlisib], for which the remaining activity at 1 µM came out at 98% in experiment [1]; 100% in experiment [2]; 92% in experiment [3]; 96% in experiment [4]; 97% in experiment [5]; 100% in experiment [6]. Besides, the remaining activity at 1 µM came to 62% in experiment [7] and 93% in experiment [8]. Also, the remaining activity at 10 µM in experiment [1] (setting [9]), in experiment [2] (setting [9]), in experiment [3] (setting [9]), in experiment [4] (setting [9]), in experiment [5] (setting [9]) and in experiment [6] (setting [9]) was 100% in each case. For the same compound, the remaining activity at 10 µM was found to be 67% in experiment [7] (setting [9]) and 100% in experiment [8] (setting [9]).

As for `Cn1c(=O)n(-c2ccc(C(C)(C)C#N)cc2)c2c3cc(-c4cnc5ccccc5c4)ccc3ncc21` [Dactolisib, 2-methyl-2-[4-(3-methyl-2-oxo-8-quinolin-3-yl-2,3-dihydroimidazo[4,5-c]quinolin-1-yl)-phenyl] propionitrile], the remaining activity at 1 µM in experiment [1] was 100%; in experiment [2], 79%; in experiment [3], 64%; in experiment [4], 55%; in experiment [5] it was 84%; in experiment [6] it was 72%. In addition, the remaining activity at 1 µM in experiment [7] came to 68%; in experiment [8] it was 94%.

`FC(F)c1nc2ccccc2n1-c1nc(N2CCOCC2)nc(N2CCOCC2)n1` [ZSTK474, 2-(difluoromethyl)-1-[4,6-di(4-morpholinyl)-1,3,5-triazin-2-yl]-1H-benzimidazole]: the remaining activity at 1 µM is 100% in experiment [1]; 88% in experiment [2]; 93% in experiment [3]; 99% in experiment [4]; 100% in experiment [5]; 74% in experiment [6]. The values for the remaining activity at 1 µM in experiment [7] and in experiment [8] were 100% and 88%, respectively.

`COc1ncc(-c2ccc3nccc(-c4ccnnc4)c3c2)cc1NS(=O)(=O)c1ccc(F)cc1F` [Omipalisib]: the remaining activity at 1 µM in experiment [1] is 100%; in experiment [2] it was 100%; in experiment [3], 100%; in experiment [4], 100%; in experiment [5], 66%; in experiment [6] it was 100%. Also, the remaining activity at 1 µM in experiment [7] was 88%; in experiment [8], 100%.

The record behind these values is paper PMC5564600 (Oncotarget, 2017).
